Test results from patent publication US20220073536A1 (Rigel Pharmaceuticals, Inc., priority 2003, published 2022).
Like-named read-outs stand apart in the source and are kept apart here.

How the values were obtained:
[1] = test system: cultured human mast cells (CHMC); assay: CHMC low cell density IgE activation: tryptase assay; type: cell-based; details: IgE activation
Procedure, shortened: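 Fluorogenic readout of tryptase released into the supernatant (30 min substrate incubation, room temperature) measures degranulation. Cells were plated at low density (1000–1500/well, varied by donor) and triggered with anti-IgE for 30 min at 37 °C.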

[2] = target: T1, Syk kinase (Homo sapiens, UniProt P43405); assay: Syk kinase biochemical fluorescence polarization assay; details: read-out: fp_syk, 11 pt
T1 construct: purchased Upstate, Lake Placid N.Y
Protocol: Many of the 2,4-pyrimidinediamine compounds were tested for the ability to inhibit Syk kinase catalyzed phosphorylation of a peptide substrate in a biochemical fluorescenced polarization assay with isolated Syk kinase. In this experiment, Compounds were diluted to 1% DMSO in kinase buffer (20 mM HEPES, pH 7.4, 5 mM MgCl2, 2 mM MnCl2, 1 mM DTT, 0.1 mg/mL acetylated Bovine Gamma Globulin). Compound in 1% DMSO (0.2% DMSO final) was mixed with ATP/substrate solution at room temperature. Syk kinase (Upstate, Lake Placid N.Y.) was added to a final reaction volume of 20 uL, and the reaction was incubated for 30 minutes at room temperature. […] EDTA (10 mM final)/anti-phosphotyrosine antibody (1× final)/fluorescent phosphopeptide tracer (0.5× final) was added in FP Dilution Buffer to stop the reaction for a total volume of 40 uL according to manufacturer's instructions (PanVera Corporation) The plate was incubated for 30 minutes in the dark at room temperature. Plates were read on a Polarion fluorescence polarization plate reader (Tecan). Data were converted to amount of phosphopeptide present using a calibration curve generated by competition with the phosphopeptide competitor provided in the Tyrosine Kinase Assay Kit, Green (PanVera Corporation).

[3] = test system: cultured human mast cells (CHMC); assay: CHMC low cell density ionomycin activation: tryptase assay; type: cell-based; details: read-out: LD Tryptase, CHMC, Iono, 3 pt
[4] = Homo sapiens, Mast cell, low cell density CHMC, tryptase, 3 pt, read-out: LD Tryptase, CHMC, IgE, 3 pt
[5] = Homo sapiens, Mast cell, low cell density CHMC, tryptase, 8 pt, read-out: LD Tryptase, CHMC, IgE, 8 pt
[6] = low cell density, 3 pt, read-out: LD Tryptase, CHMC, IgE, 3 pt
[7] = low cell density CHMC, tryptase, 3 pt, read-out: LD Tryptase, CHMC, IgE, 3 pt
[8] = low cell density CHMC, tryptase, 8 pt, read-out: LD Tryptase, CHMC, IgE, 8 pt
[9] = low cell density CHMC, tryptase, 3 pt
[10] = Homo sapiens, Mast cell, low cell density CHMC, tryptase, 3 pt

Compound	IC50 [1, 4] [µM]	IC50 [1, 8] [µM]	IC50 [3, 9] [µM]	IC50 [1, 7] [µM]	other results
COc1ccc(Nc2nc(Nc3cccc(-c4nnc(C(C)(C)C)o4)c3)ncc2F)cc1OC [Compound 530, N2-[ (2-tert-Butyl-1,3,4-oxadiazol-5-yl)phenyl]-N4-(3,4-dimethoxyphenyl)-5-fluoro-2,4-pyrimidinediamine]	–	–	–	–	IC50 [1, 6]: < 10 µM; IC50 ([1]; low cell density, 8 pt, read-out: LD Tryptase, CHMC, IgE, 8 pt): < 10 µM; IC50 ([2]; 11 pt): < 10 µM
CNC(=O)COc1ccc(Nc2nc(Nc3ccc4c(ccn4CC(=O)NC)c3)ncc2F)cc1Cl [Compound 652, N4-[3-Chloro-4-(N-methylamino)carbonylmethyleneoxyphenyl]-5-fluoro-N2-[1-(N-methylamino)carbonylmethyleneindol-5-yl]-2,4-pyrimidinediamine]	–	–	–	–	IC50 ([1]; Homo sapiens, Mast cell, low cell density CHMC, tryptase release, 8 point, read-out: LD Tryptase, CHMC, IgE, 8 pt): < 10 µM; IC50 ([2]; isolated Syk kinase, 11 point): < 10 µM
CC(C)(C)OC(=O)NCC(=O)NCc1ccc(Nc2ncc(F)c(Nc3ccc4c(c3)NC(=O)C(C)(C)O4)n2)cc1 [Compound 1307, N2-[4-[1-(tert-Butoxycarbonylamino)methylenecarbonylamino]methylphenyl]-N4-(2,2-dimethyl-3-oxo-4H-benz[1,4]oxazin-6-yl)-5-fluoro-2,4-pyrimidinediamine]	–	< 10	< 10	< 10	–
C[C@@H]1Oc2ccc(Nc3nc(Nc4ccc(CNC(=O)CNC(=O)OC(C)(C)C)cc4)ncc3F)cc2NC1=O [Compound 1308, (S)-N2-[4-[1-(tert-Butoxycarbonylamino)methylenecarbonylamino]methylphenyl]-5-fluoro-N4-(2-methyl-3-oxo-2H,4H-benz[1,4]oxazin-6-yl)-2,4-pyrimidinediamine]	–	< 10	< 10	< 10	–
CC(C)(C)OC(=O)NCC(=O)NCc1ccc(Nc2ncc(F)c(Nc3ccc4c(c3)NC(=O)C(F)(F)O4)n2)cc1 [Compound 1309, N2-[4-[1-(tert-Butoxycarbonylamino)methylenecarbonylamino]methylphenyl]-N4-(2,2-difluoro-3-oxo-4H-benz[1,4]oxazin-6-yl)-5-fluoro-2,4-pyrimidinediamine]	–	< 10	> 10	< 10	–
CC(C)(C)OC(=O)NCC(=O)NCc1ccc(Nc2ncc(F)c(Nc3ccc(Cl)c(Cl)c3)n2)cc1 [Compound 1310, N2-[4-[1-(tert-Butoxycarbonylamino)methylenecarbonylamino]methylphenyl]-N4-(3,4-dichlorophenyl)-5-fluoro-2,4-pyrimidinediamine]	–	< 10	< 10	< 10	–
(S)-5-Fluoro-N2-[4- (N-methoxycarbonylmethyleneamino)carbonylphenyl]-N4- (2-methyl-3-oxo-2H,4H-benz[1,4]oxazin-6-yl)-2,4-pyrimidinediamine [Compound 1271]	–	< 10	> 10	–	–
N2- (3-Chloro-4-methoxyphenyl)-N4- (2,2-dimethyl-3-oxo-4H-benz[1,4]oxazin-6-yl)-5-fluoro-N4-methyl-2,4-pyrimidinediamine [Compound 394]	–	–	< 10	< 10	–
N2- (Bis-2-hydroxyethyl)-N4- (3,4-ethylenedioxyphenyl)-5-fluoro-N4-methyl-2,4-pyrimidinediamine [Compound 492]	–	–	–	–	IC50 [1, 6]: > 10 µM; IC50 ([3]; low cell density, 3 pt): > 10 µM
N2-[4-[1- (tert-Butoxycarbonylamino)methylenecarbonylamino]methylphenyl]-N4- (3,4-dichlorophenyl)-5-fluoro-N4-methyl-2,4-pyrimidinediamine [Compound 1311]	–	–	> 10	< 10	–
N4- (2,2-Difluoro-3-oxo-4H-benz[1,4]oxazin-6-yl)-5-fluoro-N2-[4-[N- (N-methylamino)carbonylmethylene]aminocarbonylphenyl]-2,4-pyrimidinediamine [Compound 1297]	–	–	> 10	< 10	–
N4- (2,2-Dimethyl-3-oxo-4H-benz[1,4]oxazin-6-yl)-5-fluoro-N2-(1-methylindazol-6-yl)-2,4-pyrimidinediamine p-Hydroxybenzenesulfonic Acid Salt [Compound 768]	–	< 10	> 10	< 10	–
N4- (4-Chloro-3-methoxyphenyl)-5-fluoro-N2-[1-(methoxycarbonylmethylene)indol-5-yl]-2,4-pyrimidinediamine [Compound 645]	–	–	–	–	IC50 ([1]; low cell density CHMC, tryptase release, 3 point, read-out: LD Tryptase, CHMC, IgE, 3 pt): < 10 µM; IC50 ([1]; low cell density CHMC, tryptase release, 8 point, read-out: LD Tryptase, CHMC, IgE, 8 pt): < 10 µM; IC50 ([3]; low cell density CHMC, tryptase release, 3 point): > 10 µM

The next lines start with results.

IC50 [1, 4] [µM]	IC50 [1, 8] [µM]	IC50 [3, 9] [µM]	Compound	IC50 [1, 7] [µM]	other results
< 10	–	–	CNC(=O)c1cc2cccc(Nc3ncc(F)c(Nc4cc(OC)cc(OC)c4)n3)c2[nH]1 [Compound 368, N4-(3,5-Dimethoxyphenyl)-5-fluoro-N2-[2-(N-methylamino)carbonylindol-7-yl]-2,4-pyrimidinediamine]	–	IC50 ([2]; isolated Syk kinase, 11 pt): < 10 µM
< 10	–	–	COc1cc(Nc2nc(Nc3cccc4cc(C(=O)N(C)CCO)[nH]c34)ncc2F)cc(OC)c1 [Compound 384]	–	IC50 [1, 5]: < 10 µM; IC50 ([2]; isolated Syk kinase, 11 pt): < 10 µM
–	< 10	> 10	CNC(=O)CNC(=O)c1ccc(Nc2ncc(F)c(Nc3ccc(Cl)c(Cl)c3)n2)cc1 [Compound 1300, N4-(3,4-Dichlorophenyl)-5-fluoro-N2-[4-[N-(N-methylamino)carbonylmethylene]aminocarbonylphenyl]-2,4-pyrimidinediamine]	< 10	–
–	< 10	> 10	CNC(=O)CNC(=O)c1ccc(Nc2ncc(F)c(N(C)c3ccc(Cl)c(Cl)c3)n2)cc1 [Compound 1301, N4-(3,4-Dichlorophenyl)-5-fluoro-N4-methyl-N2-[4-[N-(N-methylamino)carbonylmethylene]aminocarbonylphenyl]-2,4-pyrimidinediamine]	< 10	–
< 10	–	–	COC(=O)CCNC(=O)c1ccc(Nc2ncc(F)c(Nc3ccc4c(c3)NC(=O)C(C)(C)O4)n2)cc1 [Compound 1302, N4-(2,2-Dimethyl-3-oxo-4H-benz[1,4]oxazin-6-yl)-5-fluoro-N2-[4-[N-(2-methoxycarbonylethyl)aminocarbonyl]phenyl]-2,4-pyrimidinediamine]	–	IC50 [1, 5]: < 10 µM; IC50 [3, 10]: < 10 µM
< 10	–	–	COC(=O)CCNC(=O)c1ccc(Nc2ncc(F)c(Nc3ccc4c(c3)NC(=O)[C@H](C)O4)n2)cc1 [Compound 1303, (S)-5-Fluoro-N2-[4-[N-(2-methoxycarbonylethyl)aminocarbonyl]phenyl]-N4-(2-methyl-3-oxo-2H,4H-benz[1,4]oxazin-6-yl)-2,4-pyrimidinediamine]	–	IC50 [1, 5]: < 10 µM; IC50 [3, 10]: > 10 µM
< 10	–	–	COC(=O)CCNC(=O)c1ccc(Nc2ncc(F)c(Nc3ccc4c(c3)NC(=O)C(F)(F)O4)n2)cc1 [Compound 1304]	–	IC50 [1, 5]: < 10 µM; IC50 [3, 10]: > 10 µM
< 10	–	–	COC(=O)CCNC(=O)c1ccc(Nc2ncc(F)c(Nc3ccc(Cl)c(Cl)c3)n2)cc1 [Compound 1305]	–	IC50 [1, 5]: < 10 µM; IC50 [3, 10]: < 10 µM
< 10	–	–	COC(=O)CCNC(=O)c1ccc(Nc2ncc(F)c(N(C)c3ccc(Cl)c(Cl)c3)n2)cc1 [Compound 1306]	–	IC50 [1, 5]: < 10 µM; IC50 [3, 10]: > 10 µM
–	< 10	> 10	(R)-5-Fluoro-N2-[4- (N-methoxycarbonylmethyleneamino)carbonylphenyl]-N4- (2-methyl-3-oxo-2H,4H-benz[1,4]oxazin-6-yl)-2,4-pyrimidinediamine [Compound 1272]	–	–
